Patent US10105425B2, “Isolated donor MHC-derived peptide and uses thereof” (INSERM (INSTITUT NATIONAL DE LA SANTÉ ET DE LA RECHERCHE …, priority 2014, dated 2018)

Assays:
CD8^+CD40Ig Tregs = experiment: MLR coculture: CD25 activation of CD8+CD40Ig Tregs with syngeneic pDCs and allogeneic peptides; type: cell-based, rat; conditions: for upregulation of CD25 expression, fold vs. no peptide: 6 days culture, matured syngeneic pDCs, 120 μg/ml peptide
Protocol: (§1) For MLR coculture assays, pDCs from LEW.1A naive rats (1.25×10^4 cells), syngeneic CD8^+CD40Ig Tregs (5×10^4 cells) and 120 μg/ml of allogeneic peptides were plated in triplicate in 200 μl of complete RPMI-1640 medium in round-bottom 96 wells plates for 6 days at 37° C., 5% CO2. pDCs were matured with 0.5 μM of CpG ODN 1826.
(§2) Proliferation of CFSE-labeled naive CD4^+CD25^− T cells and phenotype of CD8^+CD45RC^low Tregs were analyzed by flow cytometry on a FACSCanto II cytometer (BD Biosciences, Mountain View, Calif.) after gating on TCR^+CD4^+ cells or TCR^+CD8^+ cells among live cells (DAPI negative).
For extracellular staining, cells were stained with the following mAbs: anti-TCRαβ (R73, Alexa Fluor 647-conjugated), anti-CD8α (OX8, PE-Cy7-conjugated, ebiosciences), anti-CD4 (W3.25, PE-Cy7-conjugated), anti-CD45RC (OX22, FITC-conjugated), anti-CD28 (JJ319, biotin-labeled), anti-CD71 (OX26, biotin-labeled), anti-mouse Vb11 (KT11, biotin-labeled, AbD Serotec) anti-CD25 (OX39, biotin-labeled) and anti-MHC-II (OX6, biotin-labeled).
(§3) All biotinylated mAbs were visualized using Streptavidin-PerCP.Cy5.5 (BD Biosciences). A FACSCanto II cytofluorimeter (BD Biosciences, Mountain View, Calif.) was used to measure fluorescence, and data were analyzed using FlowJo software (Tree Star, Inc. USA, version 7.6.5). Cells were first gated by their morphology and dead cells excluded by selecting DAPI negative viable cells.

[1] = test system: CD8^+CD40Ig Tregs and pDCs; experiment: Cytokine ELISA in coculture supernatants after peptide stimulation; type: cell-based, rat; conditions: 6 days peptide stimulation with pDCs, supernatant
Protocol: as §1
IFNγ, IL-10 were measured in coculture supernatants using ELISA from BD Biosciences OptEIA, IL-12 and TGFβ using ELISA from Invitrogen and R&D System respectively.

CD4^+CD25^− T cells = experiment: Direct MLR suppressive assay (CFSE proliferation); type: cell-based, rat
Protocol: For direct MLR suppressive assays, sorted CFSE-labeled CD4^+CD25^− T cells from LEW.1A origin (5×10^4 cells) and allogeneic pDCs isolated from donor LEW.1W animals (1.25×10^4 cells) were plated in triplicate for 6 days in a final volume of 200 μl of completed RPMI-1640 medium in round-bottom 96 wells plates with FACS-sorted freshly purified naive CD8^+CD45RC^low Treg cells, peptide-expanded CD8^+CD40Ig Treg cells (5×10^4 cells), Du51 tetramer^+ or ^− CD8^+CD40Ig Tregs. For indirect MLR suppressive assay, splenocytes isolated from donor LEW.1W animals were frozen-thawed to induce apoptosis. Apoptotic cells were then cultured overnight with pDCs isolated from recipient LEW.1A animals (8:1 ratio) at 0.65×10^6 pDCs/mL. Alloantigens-loaded pDCs were finally washed and plated as described before for the direct MLR.
as §2

[2] = test system: heart allograft in LEW.1A recipients; experiment: Cardiac allotransplantation with in vivo peptide treatment; design: species or system rat; conditions: for allograft survival: five i.v injections of 500 μg peptide, LEW.1W into LEW.1A, n=4
Protocol: Allotransplantations of heart were performed between whole MHC incompatible LEW.1W (RT1.A^u as donors) and LEW.1A (RT1.A^a as recipients) male rats as previously described (5). The experiments were approved by the regional ethical committee for animal experimentation.
16-mer peptides were dissolved in 0.4% DMSO/PBS before injection. For the first protocol, single doses of peptide (500 μg/injection) were injected i.v at different time points before and after transplantation at day −6, −3, 0 +3 and +7 into grafted LEW.1A recipients. In the second protocol, mini osmotic pumps (ALZET, Cupertino, Calif., USA) were implanted intraperitoneally (i.p) in recipients and delivered continuously either 20.83 or 41.66 μg/hour of 16-mer peptides for 14 days. A first pump was implanted on day −7 before transplantation and was replaced by a second one at day +7, allowing delivery of 14 or 28 mg of peptide per animal for 28 consecutive days. A depleting anti-CD8α mAb (OX8, IgG1, 3 mg/kg) or an anti-MHC class Ia and Ib mAb (OX18, 3 mg/kg) were injected i.p. twice a week from day −7 until rejection. Allografts were monitored daily by palpation and allograft rejection was defined as complete cessation of palpable heart beat.

cardiac grafts = experiment: Morphometric analysis of cardiac grafts (chronic rejection); type: in vivo, rat; conditions: long-term surviving Du51-treated recipients
Protocol: The upper third of the graft was fixed in paraformaldehyde and embedded in paraffin. Five μm coronal sections were stained with hematoxylin-eosine-safron. Tissues were analyzed by a pathologist (K.R.) blinded to the groups and chronic rejection was evaluated as previously described (63).

[3] = test system: donor-specific alloantibodies; experiment: Donor specific alloantibody detection by cytofluorimetry; type: in vivo, rat; conditions: long-term surviving Du51-treated recipients vs untreated or early rejecting
Protocol: Alloantibodies were analyzed by cytofluorimetry as described elsewhere (28). Briefly, after digestion by collagenase D and red blood cell lysis, allogeneic spleen cells were incubated with diluted (1/8) heat-inactivated serum, and then with FITC-conjugated goat anti-rat IgG antibodies (H+L chain specific) (Jackson Laboratories), a mouse anti-rat IgG1 MAb (MCA 194, Serotec), IgG2a (MCA 278, Serotec) or IgG2b (MCA 195, Serotec). […] Cells were analyzed using a FACS Canto II cytofluorimeter (BD Biosciences, Mountain View, Calif.) and the results were expressed as mean channel fluorescence for each serum.

CD8^+CD45RC^low Tregs = experiment: Spleen cell populations by flow cytometry after peptide treatment; type: in vivo, rat; conditions: long-term surviving Du51-treated recipients
Protocol: as §3
Tetramerization of RT1.A^a/Du51 was performed at room temperature by addition of streptavidin-PE (Jackson ImmunoResearch) or streptavidin-APC (BD Biosciences) at a 4:1-molar ratio, in four equal aliquots added at 15-min intervals. Likewise, the control tetramer RT1.A^a/MTF-E (ILFPSSERLISNR) was conjugated to streptavidin-BV421 (Biolegend) and represented 1.6+/−0.7% of non-specific staining among Du51-specific cells. These three reagents were mixed and added to plated cells at 10 μg/mL for 1 hour at 4° C. Cells were further stained for CD8 and CD45RC and fluorescence was analyzed on a FACSCanto II cytometer (BD Biosciences, Mountain View, Calif.). Cells were first gated by their morphology and dead cells excluded by selecting DAPI negative cells.

[4] = test system: CD4^+ and CD8^+ T cells isolated from rejected untreated animals; conditions: unmodified LEW.1A recipients, LEW.1W into LEW.1A; cited from earlier work
[5] = test system: heart allograft in irradiated LEW.1A recipients; experiment: Adoptive transfer of splenocytes from Du51-treated long-surviving recipients
Description: Total splenocytes (1.5·10^8 cells) were adoptively transferred i.v. the day before heart transplantation into naive LEW-1A recipients that had received 4.5 Gy of whole-body irradiation the same day. Recipients received splenocytes from Du51-treated rats (defined as 1st spl-transferred) or from naive rats (naive spl-transferred) or no cells (untreated irradiated).

[6] = after 6 days of peptide stimulation

Sequence: NREEYARFDSDVGEYR (Synthetic Dominant peptide Du51)
- upregulation of CD25 expression, fold vs. no peptide (CD8^+CD40Ig Tregs): 2.07±0.18 fold
- CD28 expression (CD8^+CD40Ig Tregs; [6]): upregulation
- CD71 expression (CD8^+CD40Ig Tregs; [6]): upregulation
- Foxp3 expression (CD8^+CD40Ig Tregs; [6]): no modification
- MHC class II expression (CD8^+CD40Ig Tregs; [6]): upregulation
- IFNγ expression [1]: significant increased expression
- IL-10 expression [1]: no modification
- IL-12 production [1]: decreased
- TGFβ expression [1]: no modification
- ex vivo suppressive activity of peptide-induced CD8+CD45RClow Tregs (CD4^+CD25^− T cells; Tregs from Du51-treated recipients): efficiently inhibit effector CD4^+ T cell proliferation
- proliferation of effector T cells with peptide-stimulated Tregs (CD4^+CD25^− T cells; Tregs stimulated 6 days with peptide, compared to non-activating peptide): significant inhibition
- allograft survival [2]: 9.5 days
- indefinite allograft survival ([2]; i.p. mini-osmotic pumps 20.8 μg peptide per hour for 28 days from day -7): 25%
- indefinite allograft survival, recipients ([2]; osmotic pump 41.6 μg peptide per hour, LEW.1W donor hearts): 80%
- rejection of Brown Norway (BN) third party grafts, day after transplantation ([2]; osmotic pump 41.6 μg per hour, BN/LEW.1A): 7 days
- signs of chronic rejection in graft (cardiac grafts): no signs of chronic rejection
- total IgG, IgG1, IgG2a and IgG2b alloantibodies production [3]: total inhibition
- percentage and absolute number of total CD8+ T cells, in particular CD8+CD45RClow Tregs in spleen (CD8^+CD45RC^low Tregs): trend for an increase
- tetramer-positive Du51-specific Tregs in spleen (CD8^+CD45RC^low Tregs): trend for an increase
- involvement in acute rejection of grafts [4]: not involved in acute rejection
- recipients with significant prolongation of allograft survival ([5]; 150·10^6 splenocytes from recipients treated with 1 mg/day Du51, irradiated secondary recipients): 50%
- anatomopathological status of graft ([5]; first adoptively transferred long term recipients): complete absence of vascular lesions and obstructions
- total IgG, IgG1 and IgG2b alloantibodies production ([5]; first adoptively transferred long-term recipients vs untreated): total inhibition

Sequence: YLRYDSDVGEYRAVTE [Bu31, sub-dominant peptide from donor MHC class II RT1.B^u]
- upregulation of CD25 expression, fold vs. no peptide (CD8^+CD40Ig Tregs): 1.67±0.09 fold
- allograft survival [2]: 11 days

Sequence: REEYARFDSDVGEYR (Synthetic 15-mer peptide 51-18)
- upregulation of CD25 expression, fold vs. no peptide (CD8^+CD40Ig Tregs): 2.04±0.3 fold
- activation / recognition by CD8+CD40Ig Tregs (CD25), in words (CD8^+CD40Ig Tregs; coculture with matured syngeneic pDCs, 6 days): not significantly different from that induced by Du51
